# Experiments:
# asparaginase I [1] = assay: Asparaginase I production on supplemented medium; assay type: cell-based; settings: YEMEA, 7.5 g/L urea, 10 ppm cobalt
# Description: The induction of asparaginase I production in various nitrile hydratase producing microorganisms was evaluated. All strains were grown on YEMEA medium containing 7.5 g/L of urea and 10 ppm cobalt (provided as cobalt chloride) supplemented with asparagine (ASN), glutamine (GLN), or both asparagine and glutamine. The asparagine and glutamine were added at a concentration of 3.8 mM. As a comparative, enzyme production was also evaluated with supplementation with acrylonitrile (AN), acrylamide (AMD) or acrylonitrile and acrylamide. Growth temperature was in the range of 26° C. to 30° C.
# nitrile hydratase [2] = assay: Nitrile hydratase induction by inducers (Example 1); assay type: cell-based, Rhodococcus sp., strain DAP 96253; settings: inducer 1000 ppm; for Nitrile Hydratase Activity: Rhodococcus sp. DAP 96253, YEMEA, 10 ppm cobalt, 7.5 g/L urea
# Description: (§1) The induction of nitrile hydratase activity and amidase activity in Rhodococcus sp., strain DAP 96253, was evaluated using multiple types of inducers (1000 ppm). Three different samples were cultured in YEMEA medium containing 10 ppm cobalt and 7.5 g/L urea and supplemented with acrylonitrile, asparagine, or glutamine. The specific nitrile hydratase activity and the specific amidase activity in each sample was evaluated, and the results are provided below in Table 3, with activities provided in units/mg cdw (cell dry weight). One unit of nitrile hydratase activity relates to the ability to convert 1 μmol of acrylonitrile to its corresponding amide per minute, per milligram of cells (dry weight) at a pH of 7.0 and a temperature of 30° C. One unit of amidase activity relates to the ability to convert 1 μmol of acrylamide to its corresponding acid per minute, per milligram of cells (dry weight) pH of 7.0 and a temperature of 30° C.
# amidase [3] = assay: Amidase induction by inducers (Example 1); assay type: cell-based, Rhodococcus sp., strain DAP 96253; settings: for Amidase Activity: Rhodococcus sp. DAP 96253, YEMEA, 10 ppm cobalt, 7.5 g/L urea, inducer 1000 ppm
# Description: as §1
# [4] = system: Brevibacterium ketoglutaricum ATCC 21533; assay: Growth on supplemented YEMEA (visual grade); assay type: cell-based; design: key: (−) meaning no detectable growth; (+/−) meaning scant growth; (+) meaning little growth; (++) meaning good growth; (+++) meaning very good growth; (++++) meaning excellent growth; settings: 30 °C, 7.5 g/L urea, 10 ppm cobalt, supplement 3.8 mM
# Description: (§2) The relative growth of various nitrile hydratase producing microorganisms was evaluated. All strains were grown on YEMEA medium containing 7.5 g/L of urea and 10 ppm cobalt (provided as cobalt chloride) supplemented with asparagine (ASN), glutamine (GLN), or both asparagine and glutamine. The asparagine and glutamine were added at a concentration of 3.8 mM. Growth temperature was in the range of 26° C. to 30° C. Growth was evaluated by visual inspection and graded on the following scale: (−) meaning no detectable growth; (+/−) meaning scant growth; (+) meaning little growth; (++) meaning good growth; (+++) meaning very good growth; and (++++) meaning excellent growth.
# [5] = system: Pseudomonas chloroaphis ATCC 13985; assay: Growth on supplemented YEMEA (visual grade); assay type: cell-based; design: key: (−) meaning no detectable growth; (+/−) meaning scant growth; (+) meaning little growth; (++) meaning good growth; (+++) meaning very good growth; (++++) meaning excellent growth; settings: 26 °C, 7.5 g/L urea, 10 ppm cobalt, supplement 3.8 mM
# Description: as §2
# [6] = system: Pseudomonas chloroaphis ATCC 43051; assay: Growth on supplemented YEMEA (visual grade); assay type: cell-based; design: key: (−) meaning no detectable growth; (+/−) meaning scant growth; (+) meaning little growth; (++) meaning good growth; (+++) meaning very good growth; (++++) meaning excellent growth; settings: 30 °C, 7.5 g/L urea, 10 ppm cobalt, supplement 3.8 mM
# Description: as §2
# [7] = system: Rhodococcus erythropolis ATCC 47072; assay: Growth on supplemented YEMEA (visual grade); assay type: cell-based; design: key: (−) meaning no detectable growth; (+/−) meaning scant growth; (+) meaning little growth; (++) meaning good growth; (+++) meaning very good growth; (++++) meaning excellent growth; settings: 26 °C, 7.5 g/L urea, 10 ppm cobalt, supplement 3.8 mM
# Description: as §2
# [8] = system: Rhodococcus rhodochrous DAP 96622 ATCC 55898; assay: Growth on supplemented YEMEA (visual grade); assay type: cell-based; design: key: (−) meaning no detectable growth; (+/−) meaning scant growth; (+) meaning little growth; (++) meaning good growth; (+++) meaning very good growth; (++++) meaning excellent growth; settings: 26 °C, 7.5 g/L urea, 10 ppm cobalt, supplement 3.8 mM
# Description: as §2
# [9] = system: Rhodococcus sp. DAP 96253 ATCC 55899; assay: Growth on supplemented YEMEA (visual grade); assay type: cell-based; design: key: (−) meaning no detectable growth; (+/−) meaning scant growth; (+) meaning little growth; (++) meaning good growth; (+++) meaning very good growth; (++++) meaning excellent growth; settings: 30 °C, 7.5 g/L urea, 10 ppm cobalt, supplement 3.8 mM
# Description: as §2
# nitrile hydratase [10] = assay: Nitrile hydratase production on supplemented medium; assay type: cell-based; settings: YEMEA, urea, cobalt, supplement 3.8 mM
# Description: (§3) The induction of nitrile hydratase production and amidase production in various nitrile hydratase producing microorganisms was evaluated. All strains were grown on YEMEA medium containing 7.5 g/L of urea and 10 ppm cobalt (provided as cobalt chloride) supplemented with asparagine (ASN), glutamine (GLN), or both asparagine and glutamine. The asparagine and glutamine were added at a concentration of 3.8 mM. As a comparative, enzyme production with no supplementation was also tested. Growth temperature was in the range of 26° C. to 30° C.
# amidase [11] = assay: Amidase production on supplemented medium; assay type: cell-based; settings: YEMEA, urea, cobalt, supplement 3.8 mM
# Description: as §3
# asparaginase I [12] = assay: Effect of inducer and media composition on asparaginase I production; assay type: cell-based, Rhodococcus sp. DAP 96253; settings: inducer 1000 ppm; for Asparaginase I levels, YEMEA - Glucose With Cobalt / Asparaginase I levels, YEMEA - Glucose Without Cobalt / Asparaginase I levels, YEMEA - Maltose With Cobalt / Asparaginase I levels, YEMEA - Maltose Without Cobalt: Rhodococcus sp. DAP 96253
# Description: Testing was performed to evaluate the effect on asparaginase I activity based upon the inducer used. In particular, testing was performed using asparagine, glutamine, succinonitrile, and isovaleronitrile as inducers (all added at 1000 ppm each).
# [13] = Brevibacterium ketoglutaricum ATCC 21533, 30 °C
# [14] = Pseudomonas chloroaphis ATCC 13985, 26 °C
# [15] = Rhodococcus erythropolis ATCC 47072, 26 °C
# [16] = Rhodococcus rhodochrous DAP 96622 ATCC 55898, 26 °C
# [17] = Rhodococcus sp. DAP 96253 ATCC 55899, 30 °C
# [18] = Pseudomonas chloroaphis ATCC 43051, 30 °C
structure (smiles),measurement,setting,value
"C=CC(N)=O [AMD, acrylamide, reference compound]",Asparaginase I Level Based on Growth Medium Supplementation,asparaginase I [1]; [13],15.4 Units/mg cdw
same,Asparaginase I Level Based on Growth Medium Supplementation,asparaginase I [1]; [14],0 Units/mg cdw
same,Asparaginase I Level Based on Growth Medium Supplementation,asparaginase I [1]; [15],0 Units/mg cdw
same,Asparaginase I Level Based on Growth Medium Supplementation,asparaginase I [1]; [16],7.8 Units/mg cdw
same,Asparaginase I Level Based on Growth Medium Supplementation,asparaginase I [1]; [17],2 Units/mg cdw
"C=CC#N [Acrylonitrile, acrylonitrile, reference compound]",Nitrile Hydratase Activity,nitrile hydratase [2],162.23 Units/mg cdw
same,Amidase Activity,amidase [3],7.59 Units/mg cdw
same,Asparaginase I Level Based on Growth Medium Supplementation,asparaginase I [1]; [13],14.6 Units/mg cdw
same,Asparaginase I Level Based on Growth Medium Supplementation,asparaginase I [1]; [14],2 Units/mg cdw
same,Asparaginase I Level Based on Growth Medium Supplementation,asparaginase I [1]; [16],8.2 Units/mg cdw
same,Asparaginase I Level Based on Growth Medium Supplementation,asparaginase I [1]; [17],7.8 Units/mg cdw
"NC(=O)CC[C@H](N)C(=O)O [Glutamine, glutamine]",Nitrile Hydratase Activity,nitrile hydratase [2],173.45 Units/mg cdw
same,nitrile hydratase induction compared with acrylonitrile,nitrile hydratase [2],exceeds the ability of acrylonitrile to induce such activity
same,Amidase Activity,amidase [3],10.39 Units/mg cdw
same,amidase activity greater than that resulting from acrylonitrile,"amidase [3]; relative to acrylonitrile as inducer, 1000 ppm",approximately 37%
same,Growth,[4],+
same,Growth,[5],+
same,Growth,[6],−
same,Growth,[7],++
same,Growth,[8],++++
same,Growth,[9],++++
same,Nitrile Hydratase Level Based on Growth Medium Supplementation,nitrile hydratase [10]; [13],37 Units/mg cdw
same,Nitrile Hydratase Level Based on Growth Medium Supplementation,nitrile hydratase [10]; [14],0 Units/mg cdw
same,Nitrile Hydratase Level Based on Growth Medium Supplementation,nitrile hydratase [10]; [18],No
same,Nitrile Hydratase Level Based on Growth Medium Supplementation,nitrile hydratase [10]; [15],42 Units/mg cdw
same,Nitrile Hydratase Level Based on Growth Medium Supplementation,nitrile hydratase [10]; [16],160 Units/mg cdw
same,Nitrile Hydratase Level Based on Growth Medium Supplementation,nitrile hydratase [10]; [17],135 Units/mg cdw
same,Amidase Level Based on Growth Medium Supplementation,amidase [11]; [13],0 Units/mg cdw
same,Amidase Level Based on Growth Medium Supplementation,amidase [11]; [14],0 Units/mg cdw
same,Amidase Level Based on Growth Medium Supplementation,amidase [11]; [18],No
same,Amidase Level Based on Growth Medium Supplementation,amidase [11]; [15],14 Units/mg cdw
same,Amidase Level Based on Growth Medium Supplementation,amidase [11]; [16],6 Units/mg cdw
same,Amidase Level Based on Growth Medium Supplementation,amidase [11]; [17],7 Units/mg cdw
same,Asparaginase I Level Based on Growth Medium Supplementation,asparaginase I [1]; [13],20.3 Units/mg cdw
same,Asparaginase I Level Based on Growth Medium Supplementation,asparaginase I [1]; [14],0 Units/mg cdw
same,Asparaginase I Level Based on Growth Medium Supplementation,asparaginase I [1]; [18],No
same,Asparaginase I Level Based on Growth Medium Supplementation,asparaginase I [1]; [15],2 Units/mg cdw
same,Asparaginase I Level Based on Growth Medium Supplementation,asparaginase I [1]; [16],10 Units/mg cdw
same,Asparaginase I Level Based on Growth Medium Supplementation,asparaginase I [1]; [17],11.1 Units/mg cdw
same,"Asparaginase I levels, YEMEA - Glucose With Cobalt",asparaginase I [12],1.9 units/mg cell dry weight
same,"Asparaginase I levels, YEMEA - Glucose Without Cobalt",asparaginase I [12],1.5 units/mg cell dry weight
same,"Asparaginase I levels, YEMEA - Maltose With Cobalt",asparaginase I [12],8.1 units/mg cell dry weight
same,"Asparaginase I levels, YEMEA - Maltose Without Cobalt",asparaginase I [12],9.3 units/mg cell dry weight
same,ability to induce asparaginase I activity,asparaginase I [12],showed an ability to induce asparaginase I activity
"CC(C)CC#N [Isovaleronitrile, isovaleronitrile, reference compound]","Asparaginase I levels, YEMEA - Glucose With Cobalt",asparaginase I [12],2.9 units/mg cell dry weight
same,"Asparaginase I levels, YEMEA - Glucose Without Cobalt",asparaginase I [12],3.5 units/mg cell dry weight
same,"Asparaginase I levels, YEMEA - Maltose With Cobalt",asparaginase I [12],7.0 units/mg cell dry weight
same,"Asparaginase I levels, YEMEA - Maltose Without Cobalt",asparaginase I [12],6.8 units/mg cell dry weight
"N#CCCC#N [Succinonitrile, succinonitrile, reference compound]","Asparaginase I levels, YEMEA - Glucose With Cobalt",asparaginase I [12],8.5 units/mg cell dry weight
same,"Asparaginase I levels, YEMEA - Glucose Without Cobalt",asparaginase I [12],6.5 units/mg cell dry weight
same,"Asparaginase I levels, YEMEA - Maltose With Cobalt",asparaginase I [12],10.0 units/mg cell dry weight
same,"Asparaginase I levels, YEMEA - Maltose Without Cobalt",asparaginase I [12],11.0 units/mg cell dry weight
same,ability to induce asparaginase I activity,asparaginase I [12],showed an ability to induce asparaginase I activity

# — patent publication US20130035232A1, “INDUCTION AND STABILIZATION OF ENZYMATIC ACTIVITY IN MICROORGANISMS” (GEORGIA STATE UNIVERSITY RESEARCH FOUNDATION, INC., priority 2010, published 2013)
